{"source": "paper PMC11280411", "about": "“Phytochemical Investigation of Carex praecox Schreb. and ACE-Inhibitory Activity of Oligomer Stilbenes of the Plant” (Molecules, 2024)", "origin": "cited, not measured here", "tested_on": "SARS-CoV-2 USA-WA1/2020, B.1.1.7, and B.1.351 variants", "parameters": "method as in PMID 34543092", "conditions": "cited from earlier work", "data": [{"smiles": "Oc1ccc(C2Oc3cc(O)cc4c3C2c2cc(O)cc(O)c2C(c2ccc(O)cc2)C4C2c3cc(O)cc4c3C(c3cc(O)cc(O)c3C2c2ccc(O)cc2)C(c2ccc(O)cc2)O4)cc1", "note": "(single isomer, unassigned; (-)) [Compound 16, (–)-hopeaphenol]", "values": [{"measurement": "inhibition of cellular entry of SARS-CoV-2", "value": "inhibited cellular entry of SARS-CoV-2 USA-WA1/2020, B.1.1.7, and B.1.351 variants"}]}]}
